In EP4268824A1 (Manros Therapeutics, priority 2022, dated 2023):

Tests used:
[1] = target: T1, F508del-CFTR (Homo sapiens, UniProt P13569, DEL508-508); assay: CFTR activation assay: short-circuit current measurements (Ussing chamber) in CFBE cells treated 24 h with CFTR modulator(s) plus compound; assay type: cell-based; conditions: for F508del-CFTR activity ('inhibition shift' induced by CFTR-172) in reference to the CFTR activity induced by Trikafta® alone (value=100): substance with R1 = [drawing 9], CFBE cells, with Trikafta®; for F508del-CFTR activity as percentage of F508del-CFTR activity in the presence of Trikafta alone (100%): CFE cells, with Trikafta
T1 construct: expressed in transfected cells; host or cells: CFBE41o- cells (CFBE F508del-CFTR), puromycin-selected
Method: • FIG 1. represents the conductance measurement as a function of time for assessing the activity of F508del-CFTR in CFBE cells using the Ussing chamber as set forth in example 13. Cells are incubated for 24 hours with either Trikafta® alone or Trikafta® + a compound of formula (I) as defined herein after. Conductance is measured as a function of time. […] This is the measure which are reported in all Tables shown below. • FIG 2. The correcting effect of Trikafta® on F508del-CFTR in a pulmonary epithelial cell line derived from a F508del-CFTR CF patient was tested as set forth in example 13 herein after in the presence of increasing concentrations of compound (44) as defined herein after and compound (107) as defined herein after. Dose-response curves were built from the activation and inhibition data (see FIG. 1). 100% represents the activity of Trikafta® alone. • FIG 3. […] CFE cells were treated with Trikafta® 100%, 33%, or 11%, in the absence or presence of 1 µM of compound (107). F508del-CFTR activity was monitored as described in the Experimental section and above. Activity is reported as percentage of δF508del-CFTR activity in the presence of Trikafta® alone (100%). The fold change over the activity of Trikafta® alone is indicated in parentheses. • FIG 4. The correcting effect of further CFTR modulators than Trikafta®, i.e. Galapagos compounds as defined herein after (GLPG 222 (G1), GLPG 1837 (G2), GLPG 2451 (G3)) (1 µM each) on F508del-CFTR in a pulmonary epithelial cell line derived from a F508del-CFTR CF patient was tested as set forth in example 13 herein after in the presence of increasing concentrations of compound (107) as defined herein after. Dose-response curves were built from the activation and inhibition data (see FIG. 1). 100% represents the activity of each CFTR modulator alone.
The activity of F508del-CFTR was indeed estimated according to the method described below in example 13. This method makes use of CFBE cells, an immortalized cell line generated from bronchial epithelium of a CF patient homozygous for F508del-CFTR [Kunzelmann, K. et al., 1993. An immortalized cystic fibrosis tracheal epithelial cell line homozygous for the F508del CFTR mutation. Am. J. Respir. Cell Mol. Biol. 8, 522-529.]. Cells are exposed for 24 hours to a combination of Trikafta® and a compound of formula (I) as defined herein after to be evaluated, and the activity of F508del-CFTR is measured by conductance in a Ussing chamber. The activation is initiated by addition of Forskolin (1 µM). […] All compounds tested were evaluated in combination with Trikafta®. In most instances, compounds were tested in triplicates at 0.1, 1 and 10 µM.
Wild-type CFBE cells (containing full-length, unmutated CFTR) are used as a reference.
F508del-CFTR expressing cells used in this present study were treated with CFTR modulators 24 h prior the experiments. The following CFTR modulators were used: Vx770 (Ivacaftor) (Selleckchem, S 1144) (Selleckchem, 24, rue des Tuileries, BP684, 67460 Souffelweyersheim, France), Vx445 (Elexacaftor) (Selleckchem, SE-S8851), Vx661 (Tezacaftor) (TargetMol, HY-15448) (TargetMol, Tebu-bio, 39 rue de Houdan, BP 15, 78612 Le-Perray-en-Yvelines cedex, France). Trikafta® is the combination of 1 µM Vx770, 3 µM Vx 445 and […] Vx661.
CFBE cell line stably expressing F508del-CFTR or WT-CFTR (CFBE WT-CFTR) were grown at 37°C in 5% CO2 - 95% air and media was replaced every 2 days.

[2] = Bettayeb et al. 2008; Popowycz et al. 2009; cited from earlier work
[3] = target: kinase; conditions: Bettayeb et al. 2008; Popowycz et al. 2009; cited from earlier work
[4] = target: CLK3 (Homo sapiens, UniProt P49761); assay: Kinase inhibition, dose-response; assay type: biochemical; conditions: > 10: no inhibition at 10 µM, the highest dose tested
Method: (§1) All compounds were additionally tested over a range of concentrations for their ability to inhibit a series of 14 kinases. IC50 values were calculated from the dose-response curves and are reported in µM. > 10, no inhibition at 10 µM, the highest dose tested (see table 6 below). [drawing 409] Table 5: CFE cells were treated with Trikafta in the presence of increasing concentrations of various compounds and their N7-methylated counterparts. Their F508del-CFTR activity is reported as percentage of F508del-CFTR activity in the presence of Trikafta alone (100%).

[5] = target: CK1γ2 (Homo sapiens, UniProt P78368); assay: Kinase inhibition, dose-response; assay type: biochemical; conditions: > 10: no inhibition at 10 µM, the highest dose tested
Method: as §1

[6] = target: DYRK1A (Homo sapiens, UniProt Q13627); assay: Kinase inhibition, dose-response; assay type: biochemical; conditions: > 10: no inhibition at 10 µM, the highest dose tested
Method: as §1

[7] = target: CLK1 (Homo sapiens, UniProt P49759); assay: Kinase inhibition, dose-response; assay type: biochemical; conditions: > 10: no inhibition at 10 µM, the highest dose tested
Method: as §1

[8] = target: CDK2 (Homo sapiens, UniProt P24941); assay: Kinase inhibition, dose-response; assay type: biochemical; conditions: > 10: no inhibition at 10 µM, the highest dose tested
Method: as §1

[9] = target: CDK9 (Homo sapiens, UniProt P50750); assay: Kinase inhibition, dose-response; assay type: biochemical; conditions: > 10: no inhibition at 10 µM, the highest dose tested
Method: as §1

[10] = target: CLK2 (Homo sapiens, UniProt P49760); assay: Kinase inhibition, dose-response; assay type: biochemical; conditions: > 10: no inhibition at 10 µM, the highest dose tested
Method: as §1

[11] = target: CK1γ3 (Homo sapiens, UniProt Q9Y6M4); assay: Kinase inhibition, dose-response; assay type: biochemical; conditions: > 10: no inhibition at 10 µM, the highest dose tested
Method: as §1

[12] = target: CK1δ (Homo sapiens, UniProt P48730); assay: Kinase inhibition, dose-response; assay type: biochemical; conditions: > 10: no inhibition at 10 µM, the highest dose tested
Method: as §1

[13] = target: CK1α1 (Homo sapiens, UniProt P48729); assay: Kinase inhibition, dose-response; assay type: biochemical; conditions: > 10: no inhibition at 10 µM, the highest dose tested
Method: as §1

[14] = target: CDK7 (Homo sapiens, UniProt P50613); assay: Kinase inhibition, dose-response; assay type: biochemical; conditions: > 10: no inhibition at 10 µM, the highest dose tested
Method: as §1

[15] = target: CK1γ1 (Homo sapiens, UniProt Q9HCP0); assay: Kinase inhibition, dose-response; assay type: biochemical; conditions: > 10: no inhibition at 10 µM, the highest dose tested
Method: as §1

[16] = target: CK1ε (Homo sapiens, UniProt P49674); assay: Kinase inhibition, dose-response; assay type: biochemical; conditions: > 10: no inhibition at 10 µM, the highest dose tested
Method: as §1

[17] = target: CLK4 (Homo sapiens, UniProt Q9HAZ1); assay: Kinase inhibition, dose-response; assay type: biochemical; conditions: > 10: no inhibition at 10 µM, the highest dose tested; read-out: IC50 CLK4
Text: All compounds were additionally tested over a range of concentrations for their ability to inhibit a series of 14 kinases. […] Their F508del-CFTR activity is reported as percentage of F508del-CFTR activity in the presence of Trikafta alone (100%).

T1 sequence (P13569 with tags, fused parts or gaps DEL508-508): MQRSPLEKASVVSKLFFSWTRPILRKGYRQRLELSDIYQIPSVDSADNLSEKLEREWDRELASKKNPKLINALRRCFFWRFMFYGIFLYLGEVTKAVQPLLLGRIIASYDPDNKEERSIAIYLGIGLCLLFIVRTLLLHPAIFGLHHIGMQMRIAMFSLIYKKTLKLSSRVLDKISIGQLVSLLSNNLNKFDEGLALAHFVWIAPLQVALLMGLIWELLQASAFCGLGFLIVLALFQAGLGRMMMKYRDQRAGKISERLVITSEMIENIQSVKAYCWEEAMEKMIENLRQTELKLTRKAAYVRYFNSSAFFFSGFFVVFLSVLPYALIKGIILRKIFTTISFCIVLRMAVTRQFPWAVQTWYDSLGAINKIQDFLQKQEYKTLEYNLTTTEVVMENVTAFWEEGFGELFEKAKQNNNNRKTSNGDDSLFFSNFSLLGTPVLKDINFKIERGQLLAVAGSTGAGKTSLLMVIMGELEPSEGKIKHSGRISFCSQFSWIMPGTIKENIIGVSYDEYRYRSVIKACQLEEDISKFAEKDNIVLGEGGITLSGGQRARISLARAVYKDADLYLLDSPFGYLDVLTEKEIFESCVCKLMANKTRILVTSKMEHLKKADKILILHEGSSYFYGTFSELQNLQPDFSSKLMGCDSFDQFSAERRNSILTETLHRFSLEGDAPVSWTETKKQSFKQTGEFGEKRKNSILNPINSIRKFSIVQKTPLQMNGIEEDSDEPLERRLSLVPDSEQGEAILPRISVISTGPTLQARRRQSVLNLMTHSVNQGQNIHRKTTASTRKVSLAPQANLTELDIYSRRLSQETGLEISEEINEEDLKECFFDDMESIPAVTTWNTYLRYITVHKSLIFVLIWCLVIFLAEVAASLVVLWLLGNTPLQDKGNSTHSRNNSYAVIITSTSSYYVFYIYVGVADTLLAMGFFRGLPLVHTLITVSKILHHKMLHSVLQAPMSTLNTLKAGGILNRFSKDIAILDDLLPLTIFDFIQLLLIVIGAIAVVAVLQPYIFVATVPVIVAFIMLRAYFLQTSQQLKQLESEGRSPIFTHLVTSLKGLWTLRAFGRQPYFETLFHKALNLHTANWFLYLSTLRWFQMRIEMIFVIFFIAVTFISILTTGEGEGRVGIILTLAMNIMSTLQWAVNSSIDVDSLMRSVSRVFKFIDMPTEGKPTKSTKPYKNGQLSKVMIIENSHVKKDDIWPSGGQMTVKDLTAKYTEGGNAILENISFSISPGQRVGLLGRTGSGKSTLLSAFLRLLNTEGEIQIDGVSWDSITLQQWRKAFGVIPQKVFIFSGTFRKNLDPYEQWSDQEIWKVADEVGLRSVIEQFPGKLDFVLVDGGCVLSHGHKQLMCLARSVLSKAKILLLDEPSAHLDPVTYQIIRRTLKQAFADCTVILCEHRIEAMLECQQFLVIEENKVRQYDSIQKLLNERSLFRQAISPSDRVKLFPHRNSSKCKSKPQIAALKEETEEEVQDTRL
Sequence of CK1γ2 (P78368 whole entry): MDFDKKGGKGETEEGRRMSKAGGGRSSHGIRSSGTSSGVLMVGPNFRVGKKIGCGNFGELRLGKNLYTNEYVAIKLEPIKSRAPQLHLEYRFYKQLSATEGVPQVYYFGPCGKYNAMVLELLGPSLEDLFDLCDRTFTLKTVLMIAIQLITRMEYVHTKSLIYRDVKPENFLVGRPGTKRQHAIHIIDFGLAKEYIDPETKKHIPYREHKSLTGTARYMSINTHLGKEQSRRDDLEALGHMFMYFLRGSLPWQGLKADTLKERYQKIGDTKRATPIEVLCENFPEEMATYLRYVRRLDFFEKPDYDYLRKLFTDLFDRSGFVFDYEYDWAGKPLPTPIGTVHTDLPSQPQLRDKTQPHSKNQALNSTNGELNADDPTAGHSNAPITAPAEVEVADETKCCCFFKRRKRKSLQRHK
Sequence of CK1γ1 (Q9HCP0 whole entry): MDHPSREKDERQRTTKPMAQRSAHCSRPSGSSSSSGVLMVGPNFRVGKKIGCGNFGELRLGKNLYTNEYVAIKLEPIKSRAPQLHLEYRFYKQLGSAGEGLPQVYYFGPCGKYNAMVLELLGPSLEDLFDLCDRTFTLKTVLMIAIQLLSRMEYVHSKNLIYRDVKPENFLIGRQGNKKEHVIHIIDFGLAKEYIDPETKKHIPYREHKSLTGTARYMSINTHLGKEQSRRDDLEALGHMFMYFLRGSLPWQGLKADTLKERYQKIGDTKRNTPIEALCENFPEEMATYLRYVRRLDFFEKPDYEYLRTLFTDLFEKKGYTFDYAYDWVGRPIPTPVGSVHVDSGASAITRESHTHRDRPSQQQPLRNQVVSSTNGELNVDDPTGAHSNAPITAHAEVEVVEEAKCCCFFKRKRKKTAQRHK
Sequence of CDK9 (P50750 whole entry, species assumed): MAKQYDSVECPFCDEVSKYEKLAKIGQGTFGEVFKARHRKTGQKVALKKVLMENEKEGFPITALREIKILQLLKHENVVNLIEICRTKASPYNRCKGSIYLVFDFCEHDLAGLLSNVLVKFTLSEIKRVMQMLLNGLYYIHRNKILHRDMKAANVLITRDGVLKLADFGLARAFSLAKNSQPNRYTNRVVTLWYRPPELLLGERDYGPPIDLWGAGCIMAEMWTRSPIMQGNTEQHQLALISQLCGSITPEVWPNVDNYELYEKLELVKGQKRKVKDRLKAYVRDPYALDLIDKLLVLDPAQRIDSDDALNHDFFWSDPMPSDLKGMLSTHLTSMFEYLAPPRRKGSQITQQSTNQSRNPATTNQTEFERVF
Sequence of CDK9 (O60563 whole entry partner, species assumed): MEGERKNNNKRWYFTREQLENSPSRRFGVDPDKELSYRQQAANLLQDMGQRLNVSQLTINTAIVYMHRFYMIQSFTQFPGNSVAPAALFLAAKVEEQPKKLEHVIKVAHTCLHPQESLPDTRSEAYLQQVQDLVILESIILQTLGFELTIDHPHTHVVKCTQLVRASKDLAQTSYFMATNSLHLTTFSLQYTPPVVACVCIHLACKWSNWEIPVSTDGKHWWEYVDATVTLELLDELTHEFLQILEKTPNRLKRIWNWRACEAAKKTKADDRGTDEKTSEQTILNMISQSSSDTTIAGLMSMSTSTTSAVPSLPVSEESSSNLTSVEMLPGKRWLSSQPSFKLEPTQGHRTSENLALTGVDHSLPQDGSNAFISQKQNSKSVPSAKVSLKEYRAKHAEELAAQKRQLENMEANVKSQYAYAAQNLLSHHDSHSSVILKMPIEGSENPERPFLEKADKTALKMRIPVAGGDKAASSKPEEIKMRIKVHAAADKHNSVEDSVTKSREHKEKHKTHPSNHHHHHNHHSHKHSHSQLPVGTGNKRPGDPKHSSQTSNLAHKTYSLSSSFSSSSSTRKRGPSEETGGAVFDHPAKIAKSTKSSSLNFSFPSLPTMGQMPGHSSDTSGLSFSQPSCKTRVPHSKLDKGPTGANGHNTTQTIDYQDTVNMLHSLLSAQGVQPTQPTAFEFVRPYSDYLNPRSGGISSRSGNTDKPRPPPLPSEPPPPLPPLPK
Sequence of CK1γ3 (Q9Y6M4 whole entry): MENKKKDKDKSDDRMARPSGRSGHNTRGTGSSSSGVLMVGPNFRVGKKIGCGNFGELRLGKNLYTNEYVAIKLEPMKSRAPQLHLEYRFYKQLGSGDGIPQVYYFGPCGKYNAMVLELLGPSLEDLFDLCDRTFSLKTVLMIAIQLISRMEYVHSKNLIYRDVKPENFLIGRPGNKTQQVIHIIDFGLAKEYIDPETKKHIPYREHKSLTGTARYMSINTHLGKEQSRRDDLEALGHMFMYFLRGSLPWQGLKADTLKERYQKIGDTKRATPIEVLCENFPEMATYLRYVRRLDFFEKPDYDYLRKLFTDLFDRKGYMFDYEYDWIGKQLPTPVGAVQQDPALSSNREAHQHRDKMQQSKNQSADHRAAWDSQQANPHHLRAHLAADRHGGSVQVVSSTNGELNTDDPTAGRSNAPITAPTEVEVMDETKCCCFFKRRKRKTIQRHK
Sequence of CK1δ (P48730 whole entry): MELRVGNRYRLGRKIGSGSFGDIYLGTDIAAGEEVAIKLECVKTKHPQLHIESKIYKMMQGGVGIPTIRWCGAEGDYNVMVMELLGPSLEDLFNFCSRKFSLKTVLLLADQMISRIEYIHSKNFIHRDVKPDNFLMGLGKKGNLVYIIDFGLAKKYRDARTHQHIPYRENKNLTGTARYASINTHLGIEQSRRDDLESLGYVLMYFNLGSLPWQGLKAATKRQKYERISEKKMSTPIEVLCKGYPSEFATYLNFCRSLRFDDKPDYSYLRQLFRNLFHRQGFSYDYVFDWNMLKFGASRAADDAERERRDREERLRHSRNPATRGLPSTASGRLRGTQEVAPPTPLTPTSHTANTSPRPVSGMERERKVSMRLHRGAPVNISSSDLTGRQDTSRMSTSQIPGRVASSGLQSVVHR
Sequence of CK1ε (P49674 whole entry): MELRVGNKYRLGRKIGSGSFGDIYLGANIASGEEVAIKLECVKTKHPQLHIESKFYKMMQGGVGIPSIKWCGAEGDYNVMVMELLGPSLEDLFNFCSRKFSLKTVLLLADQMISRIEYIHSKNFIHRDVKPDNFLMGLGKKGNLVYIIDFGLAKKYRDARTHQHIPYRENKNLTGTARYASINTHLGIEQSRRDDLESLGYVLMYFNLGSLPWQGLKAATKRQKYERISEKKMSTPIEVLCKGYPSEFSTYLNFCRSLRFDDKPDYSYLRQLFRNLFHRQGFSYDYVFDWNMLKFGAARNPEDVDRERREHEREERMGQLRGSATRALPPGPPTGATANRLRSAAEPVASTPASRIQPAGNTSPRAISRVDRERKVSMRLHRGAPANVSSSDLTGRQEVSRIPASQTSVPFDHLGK

CC(C)n1cnc2c(NCc3ccccc3)cc(N[C@@H]3CCOC3)nc21 [(A), reference compound]
F508del-CFTR activity ('inhibition shift' induced by CFTR-172) in reference to the CFTR activity induced by Trikafta® alone (value=100) ([1]; C 0.1 µM): 82.7 | F508del-CFTR activity ('inhibition shift' induced by CFTR-172) in reference to the CFTR activity induced by Trikafta® alone (value=100) ([1]; C 1 µM): 107.8 | F508del-CFTR activity ('inhibition shift' induced by CFTR-172) in reference to the CFTR activity induced by Trikafta® alone (value=100) ([1]; C 10 µM): 114.5

CC(C)c1cnn2c(NCc3ccccc3)nc(N[C@@H]3CCOC3)nc12 [(C), reference compound]
F508del-CFTR activity ('inhibition shift' induced by CFTR-172) in reference to the CFTR activity induced by Trikafta® alone (value=100) ([1]; C 0.1 µM): 109.7 | F508del-CFTR activity ('inhibition shift' induced by CFTR-172) in reference to the CFTR activity induced by Trikafta® alone (value=100) ([1]; C 1 µM): 99.5 | F508del-CFTR activity ('inhibition shift' induced by CFTR-172) in reference to the CFTR activity induced by Trikafta® alone (value=100) ([1]; C 10 µM): 116.1

CC(C)c1cnn2c(NCc3ccccc3)cc(N[C@@H]3CCOC3)nc12 [(D), reference compound]
F508del-CFTR activity ('inhibition shift' induced by CFTR-172) in reference to the CFTR activity induced by Trikafta® alone (value=100) ([1]; C 0.1 µM): 98.0 | F508del-CFTR activity ('inhibition shift' induced by CFTR-172) in reference to the CFTR activity induced by Trikafta® alone (value=100) ([1]; C 1 µM): 110.1 | F508del-CFTR activity ('inhibition shift' induced by CFTR-172) in reference to the CFTR activity induced by Trikafta® alone (value=100) ([1]; C 10 µM): 98.7

CC[C@H](CO)Nc1nc(NCc2ccccc2)c2ncc(C(C)C)n2n1 [compound 6, (2R)-2-[[4-(Benzylamino)-7-isopropyl-imidazo[2,1-f][1,2,4]triazin-2-yl]amino]butan-1-ol]
antitumor properties [2]: modest antitumor properties | kinase inhibitory activity [3]: modest kinase inhibitory activity

CC(C)c1cnc2c(NCc3ccccc3)nc(N[C@@H]3CCOC3)nn12 [compound 19, N4-Benzyl-7-isopropyl-N2-[(3R)-tetrahydrofuran-3-yl]imidazo[2,1-f][1,2,4]triazine-2,4-diamine]
IC50 [4]: > 10000 nM | IC50 [5]: > 10000 nM | IC50 [6]: > 10000 nM | IC50 [7]: 1170 nM | IC50 [8]: 1280 nM | IC50 [9]: 3180 nM | IC50 [10]: 1050 nM | IC50 [11]: > 10000 nM | IC50 [12]: 594 nM | IC50 [13]: > 10000 nM | IC50 [14]: 496 nM | IC50 [15]: > 10000 nM | IC50 [16]: 1320 nM | F508del-CFTR activity as percentage of F508del-CFTR activity in the presence of Trikafta alone (100%) ([1]; concentration 0.1 µM): 112.0% | F508del-CFTR activity as percentage of F508del-CFTR activity in the presence of Trikafta alone (100%) ([1]; concentration 1 µM): 122.2% | F508del-CFTR activity as percentage of F508del-CFTR activity in the presence of Trikafta alone (100%) ([1]; concentration 10 µM): 155.6% | IC50 [17]: 1840 nM
